{
  "source": "patent US20240262934A1",
  "about": "“STARCH-INDOLE-ACID DERIVATIVE, PREPARATION METHOD THEREFOR, AND USE THEREOF” (SHANDONG SHANWEI IMMUNOTECH CO., LTD., priority 2021, published 2024)",
  "key": {"[1]": {"assay": "Concentration of IPA in feces of mice fed HAMSIPA feed", "assay_type": "in vivo", "details": "15% and 1.5% in feed, one week", "method": "Indole acid derivatized starches with different degrees of substitution were added to a mouse feed in a ratio of 15% and 1.5%, respectively, and feces were taken to test the IPA content after mice were fed with a special feed prepared for one week."}, "[2]": {"details": "mouse, in vivo", "protocol": "(§2) A high performance liquid chromatography-tandem mass spectrometry (HPLC-MS/MS) technique was used to detect the content of metabolites IAA/IPA in each sample separately. Determination of the content of IAA/IPA in mouse feces: methanol was added into the collected feces, then vortexing, ultrasound extraction, and centrifuging were performed, a supernatant was taken to obtain an extract, the obtained extract was treated, IAA/IPA internal standards (IAA-d5/IPA-d2) were added for calibration, then purification was performed by using a small HLB solid-phase extraction column (pretreated with 5 mL of methanol and 5 mL water, then rinsed with 5 mL of a methanol/water mixed solution and 5 mL of water, an effluent being discarded, and finally eluted with 5 mL of methanol before use), and an eluate was analyzed by HPLC-MS/MS to detect IAA/IPA. Determination of the content of IAA/IPA in the hepatic portal blood and the peripheral blood: whole blood collected was allowed to stand and centrifuged at low temperature, and a supernatant was taken to obtain serum, and then an internal standard was added into the serum, purification was performed by using a solid-phase extraction column, and metabolites IAA/IPA in an eluate were detected by HPLC-MS/MS by the same method as described above. Determination of the content of IAA/IPA in the colon tissues: methanol was added into colon tissues collected, ultrasonically disrupted and further uniformly ground, then vortexing, ultrasound extraction, and centrifuging were performed, a supernatant was taken to obtain an extract, and then an internal standard was added into serum, purification was performed by using a solid-phase extraction column, and the concentration of IAA/IPA in the extract was detected by HPLC-MS/MS by the same method as described above.\n(§3) The experiments were divided into 5 groups in total: • 1. Blank control group; • 2. […] IAANa-containing water drinking group (with the IAANa concentration of 2.68 mg/mL, average daily drinking of 5 mL of water per mouse, and a total intake of 0.068 mmol IAANa); • 4. Gavage group (with the IAANa concentration of 67 mg/mL, daily gavage of 0.2 mL, and a total intake of 0.068 mmol IAANa); and • 5. Intraperitoneal injection group (with the IAANa concentration of 67 mg/mL, daily injection of 0.2 mL, and a total intake of 0.068 mmol IAANa)."}, "[3]": {"tested_on": "cytokines IL-10, IL-6, IL-1, IL-22 in mouse colon tissue", "assay": "Cytokine levels in colon tissue of DSS colitis mice", "assay_type": "in vivo", "details": "1.5% HAMSIAA-0.32 in feed, vs model group", "method": "(§1) After the end of the experiment, a disease active index (DAI) of mice was evaluated, mouse colons were taken to measure their lengths, and a colon status of the mice was evaluated by sectioning, and the levels of cytokines IL-10, IL-6, IL-22, etc. in colon tissues of the mice were detected."}, "[4]": {"tested_on": "TNF-α, IFN-γ, IL-4, IFN-α, IL-6 and IL-22", "assay": "Serum cytokine content in SLE mice", "assay_type": "in vivo", "details": "MRL/lpr mice; 1.5% HAMSIAA-0.32; after the experiment"}, "[5]": {"tested_on": "dextran sulfate sodium (DSS)-induced acute ulcerative colitis", "assay": "DSS-induced acute ulcerative colitis in mice: body weight, colon length, DAI, colon status, tissue sections", "assay_type": "in vivo", "details": "tested as 15% HAMSIAA-0.49 in feed", "method": "as §1, with “detected. The effect of […] on the prevention and treatment of DSS-induced acute ulcerative colitis in mice was finally evaluated by these indicators.” for “detected.”"}, "[6]": {"tested_on": "Systemic lupus erythematosus model (MRL/lpr)", "assay": "Systemic lupus erythematosus model mice: kidney pathology, skin damage, spleen and lymph nodes", "assay_type": "in vivo", "details": "1.5% HAMSIAA-0.32 in feed, 14 weeks", "method": "• 1. Mouse food was prepared from the prepared […] in a certain addition ratio, and SLE model mice and control mice were purchased from Changzhou Cavens Experimental Animal Co., Ltd, aged 4-6 weeks. All mice were randomly divided into 4 groups: • Control group (MRL/MPJ); • Systemic lupus erythematosus model group (MRL/lpr); • Prednisone group (MRL/lpr+Prednisone); and • […] group ([…]). The […] group was given a special feed in which […] was added in a certain proportion for 14 weeks. Kidney tissues were collected after the end of the experiment. • 2. […] After the experiment, the spleens, cervical lymph nodes, and perirenal lymph nodes of each group for mice in this embodiment were collected."}, "[7]": {"tested_on": "ANA, Anti-dsDNA lgG2a, and Anti-Smith immune antibodies", "assay": "Serum immune antibodies in SLE mice by ELISA", "assay_type": "in vivo", "details": "MRL/lpr mice; 1.5% HAMSIAA-0.32; after one month of treatment and after the experiment", "from_the_text": "After one month of treatment with HAMSIAA, blood serum samples from each group for mice were collected once. After the experiment, blood serum samples from each group of mice were collected again. The expression levels of ANA, Anti-dsDNA lgG2a, and Anti-Smith immune antibodies in the blood serum were detected by ELISA technique."}, "[8]": {"tested_on": "B cells and CD4+CXCR5+ Tfh in the spleen of MRL/lpr mice", "assay": "B cells, Tfh cells and BAFF in spleens of SLE mice", "assay_type": "in vivo", "details": "1.5% HAMSIAA-0.32, after the experiment", "method": "After the experiment, the expression levels of CD3^− B220^+ B cells, B220^+IgM^+ B cells, B220^+CD138^+ B cells, and B220^+IgD^+ B cells in the spleen for mice in each group in this embodiment were tested. […] Wherein,\nAfter the experiment, the expression levels of CD4^+CXCR5^+ Tfh in the spleens for mice in each group and BAFF in mice in each group in this Example were tested."}, "[9]": {"assay": "Concentration of IAA in hepatic portal blood serum for different modes of administration", "assay_type": "in vivo, mice", "from_the_text": "Blank control group; • 2."}, "[10]": {"assay": "Concentration of IAA/IPA in colonic contents for different modes of administration", "details": "for concentration of IAA in feces (colonic contents, FIG. 8), improvement compared with the control group: 0.068 mmol IAANa", "protocol": "as §2, §3"}, "[11]": {"details": "IAANa-containing drinking water"}},
  "note": "Like-named read-outs stand apart in the source and are kept apart here.",
  "data": [
    {"compound": "Indolepropionic Acid Derivatized High-Amylose Maize Starch [HAMSIPA]", "values": [
      {"measurement": "concentration of IPA in the feces compared with the HAMS group", "setting": "[1]", "result": "significantly increased"}
    ]},
    {"compound": "indoleacetic acid derivatized high-amylose maize starch [HAMSIAA]", "values": [
      {"measurement": "concentration of IPA in the colonic contents compared with the control group", "setting": "[2]", "result": "significantly increased"},
      {"measurement": "level of anti-inflammatory cytokine IL-10 in the colon tissue", "setting": "[3]; FIG. 17", "result": "significantly increased"},
      {"measurement": "level of pro-inflammatory cytokine IL-6 in the colon tissue", "setting": "[3]; FIG. 18", "result": "significantly reduced"},
      {"measurement": "level of pro-inflammatory cytokine in the colon tissue", "setting": "[3]; FIG. 19", "result": "significantly reduced"},
      {"measurement": "content of IL-22 in the colon tissue", "setting": "[3]; FIG. 21", "result": "significantly increased"},
      {"measurement": "IFN-α expression level in blood serum", "setting": "[4]", "result": "significantly reduce"},
      {"measurement": "IFN-γ expression level in blood serum", "setting": "[4]", "result": "significantly reduce"},
      {"measurement": "IL-4 expression level in blood serum", "setting": "[4]", "result": "significantly reduce"},
      {"measurement": "IL-6 expression level in blood serum", "setting": "[4]", "result": "significantly reduce"},
      {"measurement": "TNF-α expression level in blood serum", "setting": "[4]", "result": "significantly reduce"},
      {"measurement": "expression level of the anti-inflammatory cytokine IL-22 in blood serum", "setting": "[4]", "result": "promotes"},
      {"measurement": "severity of DSS-induced ulcerative colitis", "setting": "[5]", "result": "effectively alleviate"},
      {"measurement": "HE staining of kidney tissues (glomerular volume, cellular proliferation, inflammatory cell infiltration)", "setting": "[6]", "result": "alleviated"},
      {"measurement": "Renal interstitial scores (renal interstitial nephritis)", "setting": "[6]", "result": "significantly attenuates"},
      {"measurement": "cervical lymph node weight (lymph nodes enlargement)", "setting": "[6]", "result": "significantly reduce"},
      {"measurement": "glomerular scores (glomerular injury)", "setting": "[6]", "result": "significantly attenuates"},
      {"measurement": "glomerulonephritis and interstitial nephritis / symptoms in SLE mice compared with the SLE mouse model group", "setting": "[6]", "result": "effectively alleviate"},
      {"measurement": "perirenal lymph node weight (lymph nodes enlargement)", "setting": "[6]", "result": "significantly reduce"},
      {"measurement": "scores of the degree of skin damage", "setting": "[6]", "result": "significantly reduces"},
      {"measurement": "expression level of ANA in blood serum", "setting": "[7]", "result": "significantly reduce"},
      {"measurement": "expression level of Anti-Smith in blood serum", "setting": "[7]", "result": "significantly reduce"},
      {"measurement": "expression level of Anti-dsDNA lgG2a in blood serum", "setting": "[7]", "result": "significantly reduce"},
      {"measurement": "expression level (concentration) of BAFF", "setting": "[8]", "result": "inhibit"},
      {"measurement": "expression level of CD4+CXCR5+ Tfh in the spleen", "setting": "[8]", "result": "inhibit"},
      {"measurement": "proliferation and differentiation of B cells in the spleen (CD3− B220+ B cells)", "setting": "[8]", "result": "inhibit"},
      {"measurement": "proportion of B220+CD138+ B cells (plasma cells) in the spleen", "setting": "[8]", "result": "reduce"},
      {"measurement": "proportion of B220+IgD+ B cells in the spleen", "setting": "[8]", "result": "increase"},
      {"measurement": "proportion of B220+IgM+ B cells in the spleen", "setting": "[8]", "result": "increase"}
    ]},
    {"compound": "O=C([O-])Cc1c[nH]c2ccccc12.[Na+]", "note": "[IAANa]", "values": [
      {"measurement": "concentration of IAA in the hepatic portal blood compared with the control group", "setting": "[9]; [11]", "result": "significant increase"},
      {"measurement": "concentration of IAA in the hepatic portal blood compared with the control group", "setting": "[9]; gavage", "result": "significant increase"},
      {"measurement": "concentration of IAA in the hepatic portal blood compared with the control group", "setting": "[9]; intraperitoneal injection", "result": "significant increase"},
      {"measurement": "concentration of IPA in the colonic contents compared with the control group", "setting": "[10]; [11]", "result": "not significantly changed"},
      {"measurement": "concentration of IAA in feces (colonic contents, FIG. 8), improvement compared with the control group", "setting": "[10]; IAANa-containing drinking water, 2.68 mg/mL", "result": "about 30 times"},
      {"measurement": "concentration of IPA in the colonic contents compared with the control group", "setting": "[10]; gavage", "result": "not significantly changed"},
      {"measurement": "concentration of IAA in feces (colonic contents, FIG. 8), improvement compared with the control group", "setting": "[10]; gavage, 67 mg/mL, 0.2 mL daily", "result": "about 7 times"},
      {"measurement": "concentration of IPA in the colonic contents compared with the control group", "setting": "[10]; intraperitoneal injection", "result": "not significantly changed"},
      {"measurement": "concentration of IAA in feces (colonic contents, FIG. 8), improvement compared with the control group", "setting": "[10]; intraperitoneal injection, 67 mg/mL, 0.2 mL daily", "result": "about 7 times"}
    ]}
  ]
}
